Source: ChEMBL document CHEMBL1201862, “PubChem BioAssay data set” (2004)
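Exposure lasted 48 hours, with cells grown in 96-well plates and compounds tested at five concentrations. Abbreviation: GI50, concentration required for 50% inhibition of growth.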 Activity calls are given as the source filed them. Rule as the data show it: active = GI50 up to about 1.1 µM and inactive = higher.

Columns and labels:
Experiment in all cases: NCI tumour cell line growth inhibition, 48 h
[1] = system: KM-20L2
[2] = system: RPMI-8226
[3] = system: SNB-19
[4] = system: MOLT-4
[5] = system: NCI-H460
[6] = system: LXFL 529
[7] = system: OVCAR-4
[8] = system: SF-295
[9] = system: OVCAR-5
[10] = system: COLO 205
[11] = system: SF-539
[12] = system: UACC-257
[13] = system: RXF 393
[14] = system: A498
[15] = system: SF-268
[16] = system: SK-OV-3
[17] = system: HCT-116
[18] = system: K562
[19] = system: M19-MEL
[20] = system: SNB-78
[21] = system: U-251
[22] = system: UACC-62
[23] = system: NCI-H522
[24] = system: HT-29
[25] = system: UO-31
[26] = system: KM12
[27] = system: SK-MEL-2
[28] = system: Malme-3M
[29] = system: SR
[30] = system: M14
[31] = system: NCI-H23
[32] = system: SNB-75
[33] = system: ACHN
[34] = system: 786-0
[35] = system: CCRF-CEM
[36] = system: IGROV-1
[37] = system: HL-60
[38] = system: SK-MEL-28
[39] = system: HOP-92
[40] = system: HOP-62
[41] = system: HCC 2998
[42] = system: SK-MEL-5
[43] = system: XF498
[44] = system: SN12C
[45] = system: DMS-114
[46] = system: OVCAR-8
[47] = system: SW-620
[48] = system: CAKI-1
[49] = system: A549
[50] = system: DLD-1
[51] = system: TK-10
[52] = system: OVCAR-3
[53] = system: NCI-H226
[54] = system: EKVX
[55] = system: LOX IMVI
[56] = system: DMS-273
[57] = system: HCT-15

SMILES: COc1ccc2c(c1)CC[C@@H]1C2CC[C@]2(C)C(=O)N(CCN3CCCCC3)C(=O)CC12 (some centres not stated)
- GI50 [1]: 47.6 µM (inactive)
- GI50 [2]: 74.5 µM (inactive)
- GI50 [3]: > 100 µM (inactive)
- GI50 [4]: > 10 µM (inactive)
- GI50 [5]: > 100 µM (inactive)
- GI50 [6]: > 100 µM (inactive)
- GI50 [7]: > 100 µM (inactive)
- GI50 [8]: > 100 µM (inactive)
- GI50 [9]: > 100 µM (inactive)
- GI50 [10]: > 100 µM (inactive)
- GI50 [11]: > 100 µM (inactive)
- GI50 [12]: 44.3 µM (inactive)
- GI50 [13]: 31.9 µM (inactive)
- GI50 [14]: 36.4 µM (inactive)
- GI50 [15]: > 100 µM (inactive)
- GI50 [16]: > 100 µM (inactive)
- GI50 [17]: > 100 µM (inactive)
- GI50 [18]: 58.1 µM (inactive)
- GI50 [19]: 35.8 µM (inactive)
- GI50 [20]: > 100 µM (inactive)
- GI50 [21]: > 100 µM (inactive)
- GI50 [22]: 21.2 µM (inactive)
- GI50 [23]: 78.9 µM (inactive)
- GI50 [24]: 51.5 µM (inactive)
- GI50 [25]: 83.2 µM (inactive)
- GI50 [26]: > 100 µM (inactive)
- GI50 [27]: 60.3 µM (inactive)
- GI50 [28]: 57.3 µM (inactive)
- GI50 [29]: 75.3 µM (inactive)
- GI50 [30]: 21.3 µM (inactive)
- GI50 [31]: > 100 µM (inactive)
- GI50 [32]: 58.5 µM (inactive)
- GI50 [33]: > 100 µM (inactive)
- GI50 [34]: > 100 µM (inactive)
- GI50 [35]: 75.5 µM (inactive)
- GI50 [36]: > 100 µM (inactive)
- GI50 [37]: 21.6 µM (inactive)
- GI50 [38]: 34.8 µM (inactive)
- GI50 [39]: 44.5 µM (inactive)
- GI50 [40]: > 100 µM (inactive)

SMILES: CCN(CC)c1ccc(/N=N/c2ccc(-c3nc4cccnc4s3)cc2)cc1
- GI50 [1]: > 100 µM (inactive)
- GI50 [41]: > 100 µM (inactive)
- GI50 [2]: > 100 µM (inactive)
- GI50 [3]: > 100 µM (inactive)
- GI50 [42]: > 100 µM (inactive)
- GI50 [4]: > 100 µM (inactive)
- GI50 [5]: 60.3 µM (inactive)
- GI50 [6]: > 100 µM (inactive)
- GI50 [43]: 18.2 µM (inactive)
- GI50 [7]: 43.3 µM (inactive)
- GI50 [8]: > 100 µM (inactive)
- GI50 [44]: > 100 µM (inactive)
- GI50 [9]: > 100 µM (inactive)
- GI50 [10]: > 100 µM (inactive)
- GI50 [12]: > 100 µM (inactive)
- GI50 [45]: 46.5 µM (inactive)
- GI50 [14]: > 100 µM (inactive)
- GI50 [46]: > 100 µM (inactive)
- GI50 [15]: 57.5 µM (inactive)
- GI50 [16]: > 100 µM (inactive)
- GI50 [47]: > 100 µM (inactive)
- GI50 [17]: > 100 µM (inactive)
- GI50 [18]: > 100 µM (inactive)
- GI50 [48]: > 100 µM (inactive)
- GI50 [49]: 88.7 µM (inactive)
- GI50 [19]: 7.69 µM (inactive)
- GI50 [50]: > 100 µM (inactive)
- GI50 [20]: > 100 µM (inactive)
- GI50 [21]: > 100 µM (inactive)
- GI50 [51]: > 100 µM (inactive)
- GI50 [52]: > 100 µM (inactive)
- GI50 [22]: 97.9 µM (inactive)
- GI50 [23]: > 100 µM (inactive)
- GI50 [24]: > 100 µM (inactive)
- GI50 [25]: > 100 µM (inactive)
- GI50 [53]: > 100 µM (inactive)
- GI50 [26]: > 100 µM (inactive)
- GI50 [27]: > 100 µM (inactive)
- GI50 [28]: > 100 µM (inactive)
- GI50 [29]: > 100 µM (inactive)
- GI50 [30]: > 100 µM (inactive)
- GI50 [31]: > 100 µM (inactive)
- GI50 [32]: 32.8 µM (inactive)
- GI50 [33]: > 100 µM (inactive)
- GI50 [34]: 45.4 µM (inactive)
- GI50 [35]: > 100 µM (inactive)
- GI50 [54]: > 100 µM (inactive)
- GI50 [36]: > 100 µM (inactive)
- GI50 [37]: > 100 µM (inactive)
- GI50 [38]: > 100 µM (inactive)
- GI50 [39]: > 100 µM (inactive)
- GI50 [40]: > 100 µM (inactive)

SMILES: C#CN1C(=O)c2c(c(-c3ccccc3)c(-c3ccc(Oc4ccc(-c5c(-c6ccccc6)c6c(c(-c7ccccc7)c5-c5ccccc5)C(=O)N(C#C)C6=O)cc4)cc3)c(-c3ccccc3)c2-c2ccccc2)C1=O
- GI50 [1]: > 100 µM (inactive)
- GI50 [41]: > 100 µM (inactive)
- GI50 [2]: > 100 µM (inactive)
- GI50 [3]: > 100 µM (inactive)
- GI50 [42]: > 100 µM (inactive)
- GI50 [4]: > 100 µM (inactive)
- GI50 [5]: > 100 µM (inactive)
- GI50 [43]: 23.2 µM (inactive)
- GI50 [7]: > 100 µM (inactive)
- GI50 [8]: > 100 µM (inactive)
- GI50 [44]: 30.1 µM (inactive)
- GI50 [9]: > 100 µM (inactive)
- GI50 [10]: > 100 µM (inactive)
- GI50 [11]: > 100 µM (inactive)
- GI50 [12]: > 100 µM (inactive)
- GI50 [45]: > 100 µM (inactive)
- GI50 [13]: 30.8 µM (inactive)
- GI50 [46]: > 100 µM (inactive)
- GI50 [15]: > 100 µM (inactive)
- GI50 [47]: > 100 µM (inactive)
- GI50 [17]: > 100 µM (inactive)
- GI50 [18]: > 100 µM (inactive)
- GI50 [49]: > 100 µM (inactive)
- GI50 [19]: > 100 µM (inactive)
- GI50 [50]: > 100 µM (inactive)
- GI50 [21]: > 100 µM (inactive)
- GI50 [51]: > 100 µM (inactive)
- GI50 [55]: > 100 µM (inactive)
- GI50 [56]: > 100 µM (inactive)
- GI50 [52]: > 100 µM (inactive)
- GI50 [22]: > 100 µM (inactive)
- GI50 [23]: > 100 µM (inactive)
- GI50 [24]: > 100 µM (inactive)
- GI50 [25]: > 100 µM (inactive)
- GI50 [26]: > 100 µM (inactive)
- GI50 [27]: > 100 µM (inactive)
- GI50 [28]: > 100 µM (inactive)
- GI50 [30]: 80.7 µM (inactive)
- GI50 [31]: > 100 µM (inactive)
- GI50 [32]: > 100 µM (inactive)
- GI50 [33]: > 100 µM (inactive)
- GI50 [34]: > 100 µM (inactive)
- GI50 [35]: > 100 µM (inactive)
- GI50 [54]: > 100 µM (inactive)
- GI50 [36]: 72.6 µM (inactive)
- GI50 [37]: > 100 µM (inactive)
- GI50 [57]: 30.8 µM
- GI50 [38]: > 100 µM (inactive)
- GI50 [39]: 21.9 µM (inactive)
- GI50 [40]: > 100 µM (inactive)
